Two compounds from ChEMBL document CHEMBL5236624, “Synthesis, Characterization, and Application of Muscarinergic M3 Receptor Ligands Linked to Fluorescent Dyes” (J Med Chem, 2022) can be followed below.

The target in series [1] is T1, Muscarinic acetylcholine receptor M5 (Homo sapiens, UniProt P08912).
T1 sequence (P08912 whole entry): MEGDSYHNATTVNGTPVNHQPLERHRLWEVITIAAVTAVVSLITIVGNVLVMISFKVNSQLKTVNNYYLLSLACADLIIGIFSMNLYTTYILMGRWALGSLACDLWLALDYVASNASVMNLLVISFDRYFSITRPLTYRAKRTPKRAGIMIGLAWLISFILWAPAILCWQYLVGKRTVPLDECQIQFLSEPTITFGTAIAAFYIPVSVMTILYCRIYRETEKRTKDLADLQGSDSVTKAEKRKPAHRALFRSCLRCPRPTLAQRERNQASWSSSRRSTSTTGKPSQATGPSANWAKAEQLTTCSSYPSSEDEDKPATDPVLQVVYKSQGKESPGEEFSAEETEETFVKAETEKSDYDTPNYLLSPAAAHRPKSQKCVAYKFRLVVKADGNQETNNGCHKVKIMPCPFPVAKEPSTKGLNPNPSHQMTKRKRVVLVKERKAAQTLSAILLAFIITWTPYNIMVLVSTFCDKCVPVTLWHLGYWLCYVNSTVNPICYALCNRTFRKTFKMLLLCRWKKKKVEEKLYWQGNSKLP
In words: Displacement of [3H]N-methylscopolamine from human muscarinic M5 receptor expressed in human HEK293T cell membranes by radioligand competition binding based analysis. Set-up: species or system Cell membrane.

Series [2] addresses T2, Muscarinic acetylcholine receptor M3 (Homo sapiens, UniProt P20309). In words: Binding affinity to saturated human muscarinic M3 expressed in CHO cells assessed as dissociation constant incubated for 2 hrs by flow cytometry. The format is cell-based.
Target sequence in this assay (P20309 whole entry): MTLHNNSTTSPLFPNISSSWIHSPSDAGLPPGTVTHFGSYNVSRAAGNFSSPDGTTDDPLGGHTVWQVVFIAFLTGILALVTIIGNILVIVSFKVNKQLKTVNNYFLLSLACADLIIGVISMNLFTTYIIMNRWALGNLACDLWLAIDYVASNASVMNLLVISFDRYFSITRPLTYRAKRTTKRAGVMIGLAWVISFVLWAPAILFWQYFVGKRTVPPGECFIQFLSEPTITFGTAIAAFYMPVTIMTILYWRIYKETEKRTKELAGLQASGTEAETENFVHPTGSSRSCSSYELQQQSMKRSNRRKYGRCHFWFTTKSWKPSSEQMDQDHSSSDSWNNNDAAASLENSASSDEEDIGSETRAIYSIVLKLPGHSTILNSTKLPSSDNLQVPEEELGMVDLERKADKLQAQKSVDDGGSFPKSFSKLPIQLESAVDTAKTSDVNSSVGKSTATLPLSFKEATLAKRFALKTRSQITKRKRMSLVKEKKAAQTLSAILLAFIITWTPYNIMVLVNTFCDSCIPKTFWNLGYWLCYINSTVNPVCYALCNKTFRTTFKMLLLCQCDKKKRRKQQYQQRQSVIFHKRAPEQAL
The target in series [3] is T2, Muscarinic acetylcholine receptor M3. In words: Displacement of [3H]N-methylscopolamine from human muscarinic M3 receptor expressed in human HEK293T cell membranes by radioligand competition binding based analysis. Set-up: species or system Cell membrane.
Target sequence in this assay (P20309 whole entry): as above
For series [4], the species on record is Homo sapiens. In words: Selectivity ratio, Ki for displacement of [3H]N-methylscopolamine from human muscarinic M4 receptor expressed in human HEK293T cell membranes to Ki for displacement of [3H]N-methylscopolamine from human muscarinic M3 receptor expressed in human HEK293T cell membranes.
In series [5] the target is T3, Muscarinic acetylcholine receptor M2 (Homo sapiens, UniProt P08172).
T3 sequence (P08172 whole entry): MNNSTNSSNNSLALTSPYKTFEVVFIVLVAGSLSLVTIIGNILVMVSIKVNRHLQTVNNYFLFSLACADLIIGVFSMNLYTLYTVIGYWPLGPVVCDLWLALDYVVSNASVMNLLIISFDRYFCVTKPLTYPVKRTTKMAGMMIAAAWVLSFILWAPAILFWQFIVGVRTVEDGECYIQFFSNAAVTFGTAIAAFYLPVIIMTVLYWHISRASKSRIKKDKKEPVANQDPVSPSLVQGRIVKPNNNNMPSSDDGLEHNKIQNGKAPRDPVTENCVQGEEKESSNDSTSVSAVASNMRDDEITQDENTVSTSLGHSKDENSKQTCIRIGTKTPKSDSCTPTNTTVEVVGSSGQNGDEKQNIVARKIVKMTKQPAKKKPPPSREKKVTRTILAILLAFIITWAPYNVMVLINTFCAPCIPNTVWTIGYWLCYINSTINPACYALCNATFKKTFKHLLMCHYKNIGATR
Put plainly: Displacement of [3H]N-methylscopolamine from human muscarinic M2 receptor expressed in human HEK293T cell membranes by radioligand competition binding based analysis. Further details: species or system Cell membrane.

Another series has as its system CHO-K1. In words: Cytotoxicity against Chinese hamster CHO-K1 cells assessed as reduction in cell viability upto 1 uM by crystal violet staining based multiplate reader analysis. The format is toxicity, Cricetulus griseus. The following applies: cho-k1, 1 µM.
Series [6] concerns the target T4, Muscarinic acetylcholine receptor M1 (Homo sapiens, UniProt P11229).
T4 sequence (P11229 whole entry): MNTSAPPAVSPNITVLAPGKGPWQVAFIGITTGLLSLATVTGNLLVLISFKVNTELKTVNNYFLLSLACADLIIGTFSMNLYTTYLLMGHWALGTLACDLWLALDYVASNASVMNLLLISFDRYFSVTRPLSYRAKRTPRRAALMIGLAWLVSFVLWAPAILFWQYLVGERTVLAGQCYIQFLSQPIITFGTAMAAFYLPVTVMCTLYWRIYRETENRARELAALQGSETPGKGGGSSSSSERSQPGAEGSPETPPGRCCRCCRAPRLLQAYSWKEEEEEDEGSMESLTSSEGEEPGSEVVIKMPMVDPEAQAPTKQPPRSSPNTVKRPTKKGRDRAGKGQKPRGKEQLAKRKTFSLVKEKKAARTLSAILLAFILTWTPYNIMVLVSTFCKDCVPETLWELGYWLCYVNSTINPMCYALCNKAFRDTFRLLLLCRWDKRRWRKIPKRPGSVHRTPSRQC
Put plainly: Displacement of [3H]N-methylscopolamine from human muscarinic M1 receptor expressed in human HEK293T cell membranes by radioligand competition binding based analysis. Set-up: species or system Cell membrane.

In series [7] the target is T2, Muscarinic acetylcholine receptor M3. Put plainly: Binding affinity to saturated human muscarinic M3 expressed in CHO cells assessed as dissociation constant incubated for 2 hrs in presence of atropine by flow cytometry. The class given is cell-based.
Target sequence in this assay (P20309 whole entry): as the sequence (P20309 whole entry) above
For series [8] the target is unchanged. In words: Binding affinity to human muscarinic M3 receptor expressed in CHO cells assessed as binding to cell membrane at 100 nM measured for 60 mins by Hoechst H33342 staining based confocal microscopy. The format is cell membranes.
Target sequence in this assay (P20309 whole entry, looked up): as the sequence (P20309 whole entry) above
The target is the same in series [9]. Put plainly: Binding affinity to human muscarinic M3 expressed in CHO cells assessed as association rate constant incubated for 0.5 to 36 mins in presence of atropine by flow cytometry. The format is cell-based. The following applies: time lower 0.5 min, time upper […].
Target sequence in this assay (P20309 whole entry, looked up): as the sequence (P20309 whole entry) above
Series [10] shares this target. In words: Binding affinity to human muscarinic M3 expressed in CHO cells assessed as dissociation rate constant preincubated for 20 mins in dark followed by atropine addition and measured after 1 to 130 mins by flow cytometry. The format is cell-based. The conditions noted are these: time lower […], time upper 150.0 min.
Target sequence in this assay (P20309 whole entry, looked up): as the sequence (P20309 whole entry) above
Series [11] shares this target. In words: Binding affinity to human muscarinic M3 receptor expressed in CHO cells assessed as binding to cell membrane at 100 nM measured for 60 mins in presence of atropine by Hoechst H33342 staining based confocal microscopy. The class given is cell membranes.
Target sequence in this assay (P20309 whole entry, looked up): as the sequence (P20309 whole entry) above
For series [12], the target named is T4, Muscarinic acetylcholine receptor M1. Put plainly: Binding affinity to saturated human muscarinic M1 expressed in CHO cells assessed as dissociation constant incubated for 2 hrs by flow cytometry. The format is cell-based.
The target in series [13] is T2, Muscarinic acetylcholine receptor M3. In words: Displacement of tiotropium bromide from human muscarinic M3 receptor expressed in CHO cells incubated for 4 hrs by flow cytometric competition binding assay. The class given is cell-based.
Target sequence in this assay (P20309 whole entry): as the sequence (P20309 whole entry) above
The target is the same in series [14]. Put plainly: Displacement of atropine from human muscarinic M3 receptor expressed in CHO cells incubated for 2 hrs by flow cytometric competition binding assay. The format is cell-based.
Target sequence in this assay (P20309 whole entry): as the sequence (P20309 whole entry) above
Series [15] concerns the target T4, Muscarinic acetylcholine receptor M1. Put plainly: Binding affinity to saturated human muscarinic M1 expressed in CHO cells assessed as dissociation constant incubated for 2 hrs in presence of atropine by flow cytometry. The class given is cell-based.
Series [16] has as its target T2, Muscarinic acetylcholine receptor M3. In words: Binding affinity to human muscarinic M3 receptor expressed in human HEK293T cells assessed as inhibition of carbachol-induced G-protein signaling by measuring inositol accumulation preincubated for 30 mins followed by carbachol stimulation and measured after 90 mins by HTRF assay. The format is cell-based.
Target sequence in this assay (P20309 whole entry): as the sequence (P20309 whole entry) above
The target is the same in series [17]. In words: Binding affinity to human muscarinic M3 receptor expressed in human HEK293T cells co-expressing beta-arrestin2 assessed as inhibition of carbachol-induced beta-arrestin recruitment preincubated for 30 mins followed by carbachol stimulation and measured after 90 mins by PathHunter assay. The format is cell-based.
For series [18] the target is unchanged. In words: Binding affinity to human muscarinic M3 receptor expressed in CHO cells assessed as binding to cell membrane at 60 nM measured for 60 mins by Hoechst H33342 staining based confocal microscopy. The format is cell membranes.
Target sequence in this assay (P20309 whole entry, looked up): as the sequence (P20309 whole entry) above
Series [19] concerns the target T5, Muscarinic acetylcholine receptor M4 (Homo sapiens, UniProt P08173).
T5 sequence (P08173 whole entry): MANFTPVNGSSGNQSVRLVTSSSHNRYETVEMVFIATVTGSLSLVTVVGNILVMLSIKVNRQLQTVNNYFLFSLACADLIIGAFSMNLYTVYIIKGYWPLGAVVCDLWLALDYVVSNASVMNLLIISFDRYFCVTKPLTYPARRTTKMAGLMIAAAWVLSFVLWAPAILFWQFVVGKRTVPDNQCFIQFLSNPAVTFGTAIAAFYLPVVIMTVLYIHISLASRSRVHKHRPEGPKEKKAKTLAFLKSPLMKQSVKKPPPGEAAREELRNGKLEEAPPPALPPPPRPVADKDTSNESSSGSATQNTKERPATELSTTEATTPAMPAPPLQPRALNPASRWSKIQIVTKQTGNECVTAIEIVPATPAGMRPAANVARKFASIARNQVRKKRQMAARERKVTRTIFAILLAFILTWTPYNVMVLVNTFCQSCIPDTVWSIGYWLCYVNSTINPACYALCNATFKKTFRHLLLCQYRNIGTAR
In words: Displacement of [3H]N-methylscopolamine from human muscarinic M4 receptor expressed in human HEK293T cell membranes by radioligand competition binding based analysis. Further details: species or system Cell membrane.

The species named for series [20] is Homo sapiens. Put plainly: Selectivity ratio, Ki for displacement of [3H]N-methylscopolamine from human muscarinic M5 receptor expressed in human HEK293T cell membranes to Ki for displacement of [3H]N-methylscopolamine from human muscarinic M3 receptor expressed in human HEK293T cell membranes.
In series [21] the target is T2, Muscarinic acetylcholine receptor M3. In words: Binding affinity to human muscarinic M3 receptor expressed in CHO cells assessed as binding to cell membrane at 60 nM measured for 60 mins in presence of atropine by Hoechst H33342 staining based confocal microscopy. The class given is cell membranes.
Target sequence in this assay (P20309 whole entry, looked up): as the sequence (P20309 whole entry) above
Series [22] shares this target. In words: Binding affinity to human muscarinic M3 expressed in CHO cells assessed as dissociation rate constant preincubated for 55 mins in dark followed by atropine addition and measured after 1 to 152 mins by flow cytometry. The class given is cell-based. The conditions noted are these: time 56-207 min.
Series [23] shares this target. In words: Binding affinity to human muscarinic M3 expressed in CHO cells assessed as association rate constant incubated for 1 to 75 mins in presence of atropine by flow cytometry. The class given is cell-based. The conditions noted are these: time 1-75 min.

Calls of active or inactive are those of the source. The calls are words filed in the database; no cut-off is given here.

As for `CN(C)c1ccc2c(-c3ccc(-c4cn(CCCCCn5cc(CCCCCCN6CCC(COC(=O)Nc7ccc(F)cc7-c7ccc(F)c(Cl)c7)CC6)nn5)nn4)cc3C(=O)[O-])c3ccc(=[N+](C)C)cc-3oc2c1`, the Ki in [1] is 7.4 nM; in [3] it was 1.2 nM; in series [5], 11 nM; in series [6], 1.5 nM; in [13] (read-out: Ki), 0.15 nM; in series [13] (read-out: pKi (converted)) it was 0.132 nM. Also, the Ki in series [14] (read-out: Ki) is 2.3 nM; in series [14] (read-out: pKi (converted)), 2.19 nM; in series [19], 1.4 nM. The Kd in [2] is 23 nM; in series [7] it was 24 nM; in series [12] it was 7.3 nM; in series [15], 8.3 nM. Further, the Selectivity ratio was 1.2 in the series filed under Homo sapiens [4] and 6.2 in the series listed under Homo sapiens [20]. Moreover, in the series on CHO-K1, the Activity result is “Non-Toxic”. Moreover, the outcome in [8] and in series [18] was Active. The ka in [9] was determined as 0.37 min⁻¹. Moreover, the Kdiss in [10] is 0.0004 s⁻¹. In addition, the result in series [11] and in series [21] was inactive. Besides, the IC50 worked out at 130 nM in [16] and 430 nM in [17].

On to `CC1(C)C(/C=C/C=C/C=C2/N(CCCCS(=O)(=O)O)c3ccccc3C2(C)C)=[N+](CCCCCC(=O)NCCCCCCCCN2CCC(OC(=O)Nc3ccc(F)cc3-c3ccc(F)c(Cl)c3)CC2)c2ccc(S(=O)(=O)[O-])cc21`, for which the Ki in series [1] was 5.5 nM; in [3], 14 nM; in series [5], 9.6 nM; in [6], 0.73 nM; in series [13] (read-out: Ki), 0.14 nM; in [14] (read-out: Ki), 2.4 nM. Besides, the Ki in series [14] (read-out: pKi (converted)) is 2.14 nM; in series [19], 0.87 nM. Moreover, the Kd was determined as 54 nM in series [2], 49.7 nM in [7], 6 nM in [12] and 6.5 nM in [15]. In addition, the Kdiss in series [22] was found to be 0.000433 s⁻¹. The results for the Selectivity ratio in the series filed under Homo sapiens [4] and in the series listed under Homo sapiens [20] were 0.06 and 0.39, respectively. Besides, the Activity result in the series on CHO-K1 was “Non-Toxic”. Moreover, the result in series [8] and in [18] was Active. In addition, the result in series [11] and in [21] was inactive. Moreover, the IC50 in [16] stood at 300 nM; in series [17] it was 450 nM. Further, in series [23], the ka turned out to be 0.09 min⁻¹.
